Assay results published in BindingDB's records for patent US12304898 (Primegene (Beijing), 2025).
pIC50: −log10 of the molar value.

Columns and labels:
[1] = target: Vascular endothelial growth factor receptor 2 (Homo sapiens, UniProt P35968); experiment: Inhibitory Activities of the Compounds on VEGFR2
Method: Detect compounds on VEGFR2 (KDR) by mobility shift assay. The initial test concentration of a compound was 1000 nM, 3 times dilution, 10 concentrations, and detection in duplicate. Nintedanib (Selleckchem, Cat. S1010) was used as the positive control compound. The operation method was briefly described as follows: kinase VEGFR2 (Carna, Cat. 08-191) at the final concentration of 0.5 nM and the test compound were mixed in the Optiplate-384F well plate and incubated for 10 minutes at room temperature. Then, ATP at a final concentration of 95 μM and 3 μM Kinase substrate 22 (Gill Biochemical (glbiochem), Cat. 112393) were added. After mixing, react at room temperature for 30 minutes. Add stop detection solution to terminate the reaction and read the conversion rate with Caliper EZ ReaderlI.

Histone deacetylase 6 = target: T1, Histone deacetylase 6 (Homo sapiens, UniProt Q9UBN7); experiment: Inhibitory Activity of the Compounds on HDAC6
T1 sequence (Q9UBN7 whole entry): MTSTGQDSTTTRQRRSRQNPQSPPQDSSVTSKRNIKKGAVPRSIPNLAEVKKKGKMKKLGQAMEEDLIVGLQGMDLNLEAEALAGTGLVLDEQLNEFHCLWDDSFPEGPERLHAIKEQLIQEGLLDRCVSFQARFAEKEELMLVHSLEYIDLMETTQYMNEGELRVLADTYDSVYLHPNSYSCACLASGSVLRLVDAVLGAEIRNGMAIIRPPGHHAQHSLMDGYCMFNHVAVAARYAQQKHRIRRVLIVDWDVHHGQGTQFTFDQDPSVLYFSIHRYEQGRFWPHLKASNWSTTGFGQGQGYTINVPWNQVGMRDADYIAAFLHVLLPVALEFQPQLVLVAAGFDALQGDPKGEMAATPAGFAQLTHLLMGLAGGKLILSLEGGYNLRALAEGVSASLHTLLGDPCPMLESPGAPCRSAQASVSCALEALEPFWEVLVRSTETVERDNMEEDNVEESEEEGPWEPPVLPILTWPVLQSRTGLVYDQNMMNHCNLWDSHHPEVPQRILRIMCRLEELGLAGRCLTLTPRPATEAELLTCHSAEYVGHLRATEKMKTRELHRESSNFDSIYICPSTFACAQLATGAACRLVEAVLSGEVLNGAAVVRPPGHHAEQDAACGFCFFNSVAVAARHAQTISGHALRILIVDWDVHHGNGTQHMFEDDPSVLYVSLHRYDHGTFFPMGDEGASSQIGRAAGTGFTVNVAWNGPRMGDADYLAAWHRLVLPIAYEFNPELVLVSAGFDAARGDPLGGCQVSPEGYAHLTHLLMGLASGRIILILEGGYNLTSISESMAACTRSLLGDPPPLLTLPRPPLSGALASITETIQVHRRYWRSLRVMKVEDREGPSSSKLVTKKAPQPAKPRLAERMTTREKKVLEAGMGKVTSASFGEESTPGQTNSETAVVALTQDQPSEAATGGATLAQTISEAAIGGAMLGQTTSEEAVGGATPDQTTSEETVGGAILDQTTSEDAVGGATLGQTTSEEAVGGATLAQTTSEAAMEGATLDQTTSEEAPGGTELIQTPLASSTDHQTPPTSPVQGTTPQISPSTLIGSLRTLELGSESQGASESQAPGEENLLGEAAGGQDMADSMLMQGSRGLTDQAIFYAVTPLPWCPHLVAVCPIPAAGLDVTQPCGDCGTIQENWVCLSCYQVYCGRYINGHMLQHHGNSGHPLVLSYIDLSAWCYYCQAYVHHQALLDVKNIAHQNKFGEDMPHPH
Method: Prepare a 10 mM stock solution of a compound with DMSO. Take 10 μl of stock solution and dilute with 90 μl DMSO to become a 1 mM working solution. […] Add 30 μl trypsin/SAHA mixture (20 mM Hepes pH 8.0, 100 mM NaCl, 10 mM SAHA, 0.01 mg/ml trypsin), incubate at 23° C. for 60 minutes to terminate the reaction. Finally, read fluorescence data by Envision (390 nm excitation, 460 nm emission). […] Finally, analyze the data by XLfit5 software and calculate the IC50 value of the compound. Vorinostat (SAHA) was a positive reference compound.

Vascular endothelial growth factor receptor 2, sequence (P35968 whole entry): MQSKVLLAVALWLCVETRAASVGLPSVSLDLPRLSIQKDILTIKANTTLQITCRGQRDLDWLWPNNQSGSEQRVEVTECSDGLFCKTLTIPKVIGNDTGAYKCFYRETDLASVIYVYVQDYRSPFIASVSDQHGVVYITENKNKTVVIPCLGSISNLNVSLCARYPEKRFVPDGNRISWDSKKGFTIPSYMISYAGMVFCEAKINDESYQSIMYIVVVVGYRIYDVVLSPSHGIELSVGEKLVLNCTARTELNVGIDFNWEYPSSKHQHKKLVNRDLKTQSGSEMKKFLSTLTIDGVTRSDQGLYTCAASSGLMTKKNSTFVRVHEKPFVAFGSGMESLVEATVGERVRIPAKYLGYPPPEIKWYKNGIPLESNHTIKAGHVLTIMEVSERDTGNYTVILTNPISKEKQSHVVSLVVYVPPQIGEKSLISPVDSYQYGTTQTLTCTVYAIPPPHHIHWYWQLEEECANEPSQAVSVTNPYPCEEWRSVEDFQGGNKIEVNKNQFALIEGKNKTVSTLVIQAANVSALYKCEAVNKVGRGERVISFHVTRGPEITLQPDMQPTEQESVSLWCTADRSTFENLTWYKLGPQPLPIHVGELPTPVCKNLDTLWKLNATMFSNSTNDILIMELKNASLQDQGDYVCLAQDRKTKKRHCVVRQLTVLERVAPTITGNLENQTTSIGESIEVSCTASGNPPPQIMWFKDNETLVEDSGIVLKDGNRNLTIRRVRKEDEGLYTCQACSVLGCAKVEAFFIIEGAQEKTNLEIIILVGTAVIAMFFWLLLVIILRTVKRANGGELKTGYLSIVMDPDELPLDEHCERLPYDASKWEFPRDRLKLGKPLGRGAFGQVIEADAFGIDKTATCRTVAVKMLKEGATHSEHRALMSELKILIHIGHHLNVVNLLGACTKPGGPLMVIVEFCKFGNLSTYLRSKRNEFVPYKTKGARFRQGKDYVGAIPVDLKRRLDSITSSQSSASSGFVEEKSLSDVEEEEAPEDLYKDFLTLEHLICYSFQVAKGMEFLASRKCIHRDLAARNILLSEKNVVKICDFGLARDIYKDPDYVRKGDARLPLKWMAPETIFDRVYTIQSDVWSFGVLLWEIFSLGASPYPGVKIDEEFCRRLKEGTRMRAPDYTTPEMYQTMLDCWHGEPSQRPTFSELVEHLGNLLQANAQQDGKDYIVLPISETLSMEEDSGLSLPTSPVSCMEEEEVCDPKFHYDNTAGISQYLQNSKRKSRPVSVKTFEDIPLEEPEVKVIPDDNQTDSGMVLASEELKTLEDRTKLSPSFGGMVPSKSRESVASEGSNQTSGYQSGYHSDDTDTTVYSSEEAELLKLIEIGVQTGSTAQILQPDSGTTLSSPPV

pIC50 [1] | pIC50 (Histone deacetylase 6) | SMILES
7.70 | 7.32 | COc1cc2c(Oc3ccc(NC(=O)C4(C(=O)Nc5ccc(F)cc5)CC4)cc3F)ccnc2cc1OCCCCCNC(=O)CSC(C)=O [US12304898, Example 57]
7.60 | 7.81 | COc1cc2c(Oc3ccc(NC(=O)C4(C(=O)Nc5ccc(F)cc5)CC4)cc3F)ccnc2cc1OCCCCCNC(=O)CS [US12304898, Example 58]
7.44 | 7.01 | COc1cc2c(Oc3ccc(NC(=O)C4(C(=O)Nc5ccc(F)cc5)CC4)cc3F)ccnc2cc1OCCCCCCNC(=O)CSC(C)=O [US12304898, Example 63]

The remaining lines, values behind:

SMILES | pIC50 [1] | pIC50 (Histone deacetylase 6)
COc1cc2c(Oc3ccc(NC(=O)C4(C(=O)Nc5ccc(F)cc5)CC4)cc3F)ccnc2cc1OCCCNCCCSC(C)=O [US12304898, Example 50] | 8.18 | 
COc1cc2c(Oc3ccc(NC(=O)C4(C(=O)Nc5ccc(F)cc5)CC4)cc3F)ccnc2cc1OCCCNCCCS [US12304898, Example 51] | 8.11 | 
COc1cc2c(Oc3ccc(NC(=O)C4(C(=O)Nc5ccc(F)cc5)CC4)cc3F)ccnc2cc1OCCCN(C)CCCSC(C)=O [US12304898, Example 52] | 8.49 | 
COc1cc2c(Oc3ccc(NC(=O)C4(C(=O)Nc5ccc(F)cc5)CC4)cc3F)ccnc2cc1OCCCN(C)CCCS [US12304898, Example 53] | 8.33 | 
COc1cc2c(Oc3ccc(NC(=O)C4(C(=O)Nc5ccc(F)cc5)CC4)cc3F)ccnc2cc1OCCCCNC(=O)CSC(C)=O [US12304898, Example 61] | 7.92 | 7.52
COc1cc2c(Oc3ccc(NC(=O)C4(C(=O)NC5CC5)CC4)cc3F)ccnc2cc1OCCCCCNC(=O)CSC(C)=O [US12304898, Example 67] | 7.52 | 
CC(=O)SCC(=O)NCCCCCOc1cc2nccc(Oc3ccc(NC(=O)C4(C(=O)NC5CC5)CC4)cc3F)c2cc1C(N)=O [US12304898, Example 73] | 7.35 | 
